According to patent publication US20260008793A1, “IONIZABLE CATIONIC LIPIDS INCORPORATING SILICON” (ALDEXCHEM KFT., priority 2022, published 2026):

Columns and labels:
[1] = LNP size, PDI and zeta potential by Dynamic Light Scattering (Method A); assay type: physicochemical; conditions: LNP formulated by Method A; for Zeta potential (mV): 1xPBS pH 7.4; for PDI / Size (nm): DLS; for Size (nm): Luciferase-mRNA loaded
Description: (§1) The synthesized lipids were tested in term of in vitro transfection efficacy and toxicity on HeLa cells. In order to perform the mentioned biological tests, appropriate LNPs had to be formulated from the synthesized lipids. The formulation technique was different in Method A and B. The particle size, PDI and zeta potential of resulting LNPs were determined by means of Dynamic Light Scattering technique (DLS). Prior to biological testing the encapsulation efficiency (EE) of the loaded LNPs was determined by using RiboGreen RNA assay. In case of Method A Luciferase-mRNA while in case of Method B GFP-mRNA was transfected into the cells. In parallel with the transfection experiments, toxicity of the investigated LNPs was determined, in case of Method A resazurin assay while in case of Method B MTT assay was used. In the case of some lipids, the apparent pKa in LNPs was determined by using TNS titration based on the method described: Angew Chem Int Ed Engl. 2012, 51 (34), 8529-8533, doi: 10.1002/anie.201203263).
• 1. If needed, prepare stock solutions by solving known amounts of lipid powder into an appropriate solvent. The recommended solvent is Ethanol and the recommended concentration is typically in the range 10-50 mM. Higher concentrations are preferred to allow flexibility on mRNA-LNP concentration. • 2. Remove the lipid stock solutions from the −20° C. freezer. For long-term storage, −80° C. is used. • 3. Check the vials for precipitation, DOPE (CAS #4004-05-1) (20 mM) and DSPE-PEG (CAS #474922-26-4) (5 mM) may need a 5-30 minute incubation step at 37° C. with intermittent vortexing to resuspend all contents. […] As a last resort, lipids may be heated to 50° C. to resuspend, time should be kept as short as possible to prevent oxidation or other modifying or degradative processes. • 4. Mix the lipids by vortexing for 2 minutes. • 5. […] Cooling the solution prevent excessive evaporation of ethanol or similar solvents upon opening. • 6. Meanwhile, thaw the RNA samples, including the latest SecNLuc control, by inserting the frozen tube in a room temperature aluminium block. • 7. Prepare for each LNP-formulation with identical mRNA component, an RNA master mix according to Table 1 below in a fresh tube. Use of a master mix allows more precise comparison of lipid formulations relative to each other. Split the master mix over a number of fresh tubes equal to the number of samples+controls. Each tube contains 375 μl of mRNA in 10 mM Citrate pH 4.0. • 8. Prepare for each LNP formulation with identical lipid composition a Lipid master mix according to Table 1 below in a fresh tube, exclude the lipid of interest. Use of a master mix allows more precise comparison of the novel ionizable lipid relative to each other. Split the master mix over a number of fresh tubes equal to the number of samples+controls. Each tube contains 65.5 μl of lipid master mix. • 9. Add the ionizable lipid of interest to the equally divide lipid master mix. Mix well by pipetting up and down. Label the tube according to the ionizable lipid used. • 10. Power on the ‘L 1 formulation machine’ (L 1 FM) and allow it to do a calibration of motor positions.
• 18. Fill a fresh syringe (C) through a blunt 18 G stainless steel needle with the previously prepared RNA mixture of step 6. The volume should be approximately […] of total formulation volume+25 μl (dead-volume). Make sure to remove all air bubbles by tapping. • 19. Fill a fresh syringe (D) through a blunt 18 G stainless steel needle with the Lipid master mix. The volume should be approximately 35% of total formulation volume+25 μl (dead-volume). Again, Make sure to remove all bubbles. • 20. Attach the syringes in the correct orientation, syringe A on the left and syringe B on the right • 21. Load the ‘Receiving station’ with appropriate sized collection containers (2 ml Eppendorf tubes). • 22. Press the microfluidic chip to the back of the machine with your thumb and hold, press the ‘Button 1’ (40 g). […]

[2] = Encapsulation efficiency, RiboGreen RNA assay (Method A); assay type: physicochemical; conditions: LNP formulated by Method A
Description: as §1
• 1. Preparation of sample stock solutions: In the top row of the 96-well plate (Row A in the plate), add 297 μL of TE buffer pH 7.4 to a single well for each sample plus a single well for a PBS blank using a multichannel pipette. • 2. Add 3 μL of sample (at 0.5 mg/ml) to these wells for a final volume of 300 μL. Add 3 μL of PBS to the blank well. Pipette to mix. This is your stock solution for each sample. The final RNA concentration of these stock solutions should be approximately 4-7 μg/mL. • 3. mRNA-LNP sample setup: • a. Add 50 μL of TE buffer pH 7.5 to the two wells directly below each sample (Rows B and C in the plate). • b. Add 50 μL of sample stock solution from Row A into the wells in Rows B and C (this assay is run in duplicate. All liquid handling should be done using a multichannel pipette). • c. Add 50 μL of Triton buffer to the wells in Rows D and E (in the plate) below each sample. • d. Add 50 μL of sample stock solution from Row A into the wells in Rows D and E. • 4. RiboGreen RNA standard curve setup: Dilute the RNA standard to produce an RNA stock at a final concentration of 20 μg/mL in TE buffer pH 7.4. The final volume should be 150 μL. Set up a standard curve (in duplicate) as using the RNA stock (20 μg/mL siRNA), TE buffer pH 7.5, and Triton buffer according the Table 2 below.
• 5. Once samples and standard curve are plated, incubate the plate at 37° C. for 10 min to lyse mRNA-LNP in the presence of Triton X-100. • 6. Meanwhile, prepare RiboGreen Solution: Sum the total number of sample wells and standard curve wells. Add three to this number, and multiply the total by 100. This is the total volume, in μL, of RiboGreen Solution needed for this assay. In a 15 mL RNAse-free Falcon tube, dilute the RiboGreen Reagent 1:100 into TE buffer pH 7.5 to the total volume calculated. • 7. Addition of RiboGreen Solution and sample readings: Remove a 96-well plate from 37° C. incubator; let it cool to room temperature as RiboGreen binding is somewhat temperature dependent. Add 100 μL of RiboGreen Solution to each well. Pop any air bubbles with a needle. Read using fluorescent plate reader (excitation=480, emission=525). • 8. Sample analysis: Use the data generated by the RiboGreen standard curve to calculate the concentration of mRNA. Transfection Efficiency with Luciferase-mRNA (Method A)

Row | SMILES | Zeta potential (mV) [1] | PDI [1] | Size (nm) [1] | EE (%) [2]
1 | CCCCCCCCC(CCCCCC)C(=O)OCCCCCCN(CCCCO)CCCCCCOC(=O)C(CCCCCC)CCCCCCCC (stereo not drawn) [ALC-0315, reference compound] | −11.12 mV | 0.113 | 172.6 nm | 94%
2 | CCCCCCCC[Si](C)(C)OC(CCCCCCC)OCCCCCCN(CCCCO)CCCCCCOC(CCCCCCC)O[Si](C)(C)CCCCCCCC (stereo not drawn) [Example 102, 5-(6-((1-((dimethyl(octyl)silyl)oxy)octyl)oxy)hexyl)-13-heptyl-15,15-dimethyl-12,14-dioxa-5-aza-15-silatricosan-1-ol] | −3.4 mV | 0.06 | 212.9 nm | 96%
3 | CCCCCCCCCC(OCCCCCCN(CCCCO)CCCCCCOC(CCCCCCCCC)O[Si](C)(C)CCCCCC)O[Si](C)(C)CCCCCC (stereo not drawn) [Example 104, 5-(6-((1-((hexyldimethylsilyl)oxy)decyl)oxy)hexyl)-15,15-dimethyl-13-nonyl-12,14-dioxa-5-aza-15-silahenicosan-1-ol] | −13.26 mV | 0.043 | 184.4 nm | 96%
4 | CCCCCCCCOC(CCCCCN(CCCCO)CCCCCC(OCCCCCCCC)O[Si](C)(C)O[Si](C)(C)CCCCCCCC)O[Si](C)(C)O[Si](C)(C)CCCCCCCC (stereo not drawn) [Example 107, 4-(bis(6-(octyloxy)-6-((1,1,3,3-tetramethyl-3-octyldisiloxaneyl)oxy)hexyl)amino)butan-1-ol] | −11.69 mV | 0.186 | 152.1 nm | 96%
5 | CCCCCCCC[Si](C)(C)O[Si](C)(C)OC(CCCCCCC)OCCCCCCN(CCCCO)CCCCCCOC(CCCCCCC)O[Si](C)(C)O[Si](C)(C)CCCCCCCC (stereo not drawn) [Example 108, 13-heptyl-15,15,17,17-tetramethyl-5-(6-((1-((1,1,3,3-tetramethyl-3-octyldisiloxaneyl)oxy)octyl)oxy)hexyl)-12,14,16-trioxa-5-aza-15,17-disilapentacosan-1-ol] | −14.24 mV | 0.211 | 198.5 nm | 94%
6 | CCCCCCCCOC(CCCCCCC)O[Si](C)(C)CCCCCCN(CCCCO)CCCCCC[Si](C)(C)OC(CCCCCCC)OCCCCCCCC (stereo not drawn) [Example 113, 5-(6-(dimethyl((1-(octyloxy)octyl)oxy)silyl)hexyl)-14-heptyl-12,12-dimethyl-13,15-dioxa-5-aza-12-silatricosan-1-ol] | −5.00 mV | 0.11 | 174.6 nm | 94%
7 | CCCCCCCCSC(CCCCCCC)O[Si](C)(C)OCCCCCCN(CCCCO)CCCCCCO[Si](C)(C)OC(CCCCCCC)SCCCCCCCC (stereo not drawn) [Example 115, 15-heptyl-5-(10-heptyl-8,8-dimethyl-7,9-dioxa-11-thia-8-silanonadecyl)-13,13-dimethyl-12,14-dioxa-16-thia-5-aza-13-silatetracosan-1-ol] | 0.3 mV | 0.13 | 130.2 nm | 94%
8 | CCCCCCCCOC(CCCCCN(CCCCCC(OCCCCCCCC)O[Si](C)(C)CCCCCCCC)CCC1CCCN1C)O[Si](C)(C)CCCCCCCC (stereo not drawn) [Example 116, 6-((dimethyl(octyl)silyl)oxy)-N-(6-((dimethyl(octyl)silyl)oxy)-6-(octyloxy)hexyl)-N-(2-(1-methylpyrrolidin-2-yl)ethyl)-6-(octyloxy)hexan-1-amine] | −14.17 mV | 0.092 | 189.8 nm | 96%
9 | CCCCCCCCOC(CCCCCN(CCCCCC(OCCCCCCCC)O[Si](C)(C)O[Si](C)(C)CCCCCCCC)CCC1CCCN1C)O[Si](C)(C)O[Si](C)(C)CCCCCCCC (stereo not drawn) [Example 118, N-(2-(1-methylpyrrolidin-2-yl)ethyl)-6-(octyloxy)-N-(6-(octyloxy)-6-((1,1,3,3-tetramethyl-3-octyldisiloxaneyl)oxy)hexyl)-6-((1,1,3,3-tetramethyl-3-octyldisiloxaneyl)oxy)hexan-1-amine] | −15.92 mV | 0.04 | 179.2 nm | 98%
10 | CCCCCCCC[Si](C)(C)OC(CCCCCCC)OCCCCCCN(CCCCCCOC(CCCCCCC)O[Si](C)(C)CCCCCCCC)CCC1CCCN1C (stereo not drawn) [Example 120, 6-((1-((dimethyl(octyl)silyl)oxy)octyl)oxy)-N-(6-((1-((dimethyl(octyl)silyl)oxy)octyl)oxy)hexyl)-N-(2-(1-methylpyrrolidin-2-yl)ethyl)hexan-1-amine] | −13.18 mV | 0.055 | 161.4 nm | 98%
11 | CCCCCCCCO[Si](C)(C)OC(CCCCCCC)OCCCCCCN(CCCCCCOC(CCCCCCC)O[Si](C)(C)OCCCCCCCC)CCC1CCCN1C (stereo not drawn) [Example 121, 8-heptyl-N-(8-heptyl-10,10-dimethyl-7,9,11-trioxa-10-silanonadecyl)-10,10-dimethyl-N-(2-(1-methylpyrrolidin-2-yl)ethyl)-7,9,11-trioxa-10-silanonadecan-1-amine] | −11.47 mV | 0.012 | 179.2 nm | 98%
12 | CCCCCCCCOC(CCCCCN(CCCCO)CCCCCCOC(=O)C(CCCCCC)CCCCCCCC)O[Si](C)(C)CCCCCCCC (stereo not drawn) [Example 128, 6-((6-((dimethyl(octyl)silyl)oxy)-6-(octyloxy)hexyl)(4-hydroxybutyl)amino)hexyl 2-hexyldecanoate] | −14.77 mV | 0.107 | 228.6 nm | 97%
